Source: PubChem BioAssay AID330 (DTP/NCI, 2004)
Several values for one entry are separate records, joined by “and”; a condition that tells them apart may be missing. Equal values may be shown once. Toxic doses and inconclusive results are not listed. The calls were made as follows: active = survival T/C of 150% or more; inactive = T/C below 125% in these data.

Tested on: P388 leukemia ip, CD2F1 mice, survival T/C
Assay: NCI In Vivo Anticancer Drug Screen. Data for tumor model P388 Leukemia (intraperitoneal) in CD2F1 (CDF1) mice
Details: endpoint: median survival time, higher = longer survival
How it was run: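 Mice carrying the transplanted tumor received test compound or vehicle. Survival was recorded in each group, and the value is the treated-group measurement divided by that of the vehicle-treated control group.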

[1] = dose: 50.0 mg/kg/injection, schedule: Q01DX005 (ip), vehicle: Klucel (hydroxypropylcellulose) (HPC)
[2] = dose: 100.0 mg/kg/injection, schedule: Q01DX005 (ip), vehicle: Klucel (hydroxypropylcellulose) (HPC)
[3] = dose: 200.0 mg/kg/injection, schedule: Q01DX005 (ip), vehicle: Klucel (hydroxypropylcellulose) (HPC)
[4] = dose: 25.0 mg/kg/injection, schedule: Q01DX001 (ip), vehicle: saline with Tween-80
[5] = dose: 50.0 mg/kg/injection, schedule: Q01DX001 (ip), vehicle: saline with Tween-80
[6] = dose: 50.0 mg/kg/injection, schedule: Q01DX009 (ip), vehicle: saline with Tween-80
[7] = dose: 100.0 mg/kg/injection, schedule: Q01DX009 (ip), vehicle: saline with Tween-80
[8] = dose: 100.0 mg/kg/injection, schedule: Q04DX003 (ip), vehicle: saline with Tween-80

Measured: T/C

C#CCOC(=O)Nc1nc2ccc(SC#N)cc2s1
inactive: dose: 12.5 mg/kg/injection, schedule: Q01DX009 (ip), vehicle: Klucel (hydroxypropylcellulose) (HPC) 104 % of control | dose: 25.0 mg/kg/injection, schedule: Q01DX009 (ip), vehicle: Klucel (hydroxypropylcellulose) (HPC) 107 % of control | dose: 50.0 mg/kg/injection, schedule: Q01DX009 (ip), vehicle: Klucel (hydroxypropylcellulose) (HPC) 107 % of control and 90 % of control

O=c1oc2cc(O)ccc2cc1-c1nc2ccccc2o1
inactive: dose: 60.0 mg/kg/injection, schedule: Q01DX005 (ip), vehicle: saline with Tween-80 97 % of control | dose: 120.0 mg/kg/injection, schedule: Q01DX005 (ip), vehicle: saline with Tween-80 98 % of control | dose: 240.0 mg/kg/injection, schedule: Q01DX005 (ip), vehicle: saline with Tween-80 96 % of control

CC(=O)N1C=[N+](C)C(C)(C)C1
inactive: dose: 100.0 mg/kg/injection, schedule: Q04DX003 (ip), vehicle: saline 103 % of control | dose: 200.0 mg/kg/injection, schedule: Q04DX003 (ip), vehicle: saline 90 % of control

CCC(c1ccc(OC)cc1)c1cc2c(cc1OC)OCO2 (centres undefined)
inactive: [1] 97 % of control | [2] 106 % of control | [3] 113 % of control

Cc1[nH]c(=O)[nH]c(=O)c1/C=C/C(=O)NC(CO)CS(=O)Cc1ccccc1 (centres undefined)
inactive: dose: 0.07 mg/kg/injection, schedule: Q01DX009 (ip), vehicle: water 100 % of control | dose: 0.15 mg/kg/injection, schedule: Q01DX009 (ip), vehicle: water 102 % of control | dose: 0.3 mg/kg/injection, schedule: Q01DX009 (ip), vehicle: water 100 % of control | dose: 0.6 mg/kg/injection, schedule: Q01DX009 (ip), vehicle: water 103 % of control | dose: 2.0 mg/kg/injection, schedule: Q01DX009 (ip), vehicle: other 114 % of control | dose: 4.0 mg/kg/injection, schedule: Q01DX009 (ip), vehicle: other 118 % of control | dose: 8.0 mg/kg/injection, schedule: Q01DX009 (ip), vehicle: other 122 % of control | dose: 16.0 mg/kg/injection, schedule: Q01DX009 (ip), vehicle: other 118 % of control | dose: 32.0 mg/kg/injection, schedule: Q01DX009 (ip), vehicle: other 99 % of control and 108 % of control | dose: 64.0 mg/kg/injection, schedule: Q01DX009 (ip), vehicle: other 103 % of control | dose: 128.0 mg/kg/injection, schedule: Q01DX009 (ip), vehicle: other 98 % of control | dose: 200.0 mg/kg/injection, schedule: Q01DX009 (ip), vehicle: other 92 % of control | dose: 256.0 mg/kg/injection, schedule: Q01DX009 (ip), vehicle: other 100 % of control | dose: 300.0 mg/kg/injection, schedule: Q01DX009 (ip), vehicle: other 90 % of control | dose: 400.0 mg/kg/injection, schedule: Q01DX009 (ip), vehicle: other 93 % of control

O=c1c2ccccc2ccn1O
inactive: [1] 97 % of control | [2] 89 % of control | [3] 89 % of control

O=C1c2ccccc2C(=O)c2c1cccc2-c1ccccc1
inactive: [1] 86 % of control | [2] 87 % of control | [3] 88 % of control

Cc1ccc(CNc2ccc(C)c(Cl)c2)cc1
inactive: dose: 100.0 mg/kg/injection, schedule: Q04DX003 (ip), vehicle: other 100 % of control | dose: 200.0 mg/kg/injection, schedule: Q04DX003 (ip), vehicle: other 100 % of control | dose: 400.0 mg/kg/injection, schedule: Q04DX003 (ip), vehicle: other 100 % of control

NC(=O)c1c(Cl)nc2sccn12
inactive: [4] 107 % of control | [5] 104 % of control | dose: 100.0 mg/kg/injection, schedule: Q01DX001 (ip), vehicle: saline with Tween-80 101 % of control and 112 % of control

CCCCOC(=O)C(c1ccccc1)C1(C)Sc2ccccc2NC1=O (centres undefined)
inactive: dose: 12.5 mg/kg/injection, schedule: Q01DX001 (ip), vehicle: saline with Tween-80 95 % of control | [4] 96 % of control | [5] 98 % of control

O=C1Cc2ccccc2N1C(=O)c1ccc(F)cc1
inactive: dose: 100.0 mg/kg/injection, schedule: Q01DX001 (ip), vehicle: Klucel (hydroxypropylcellulose) (HPC) 102 % of control | dose: 200.0 mg/kg/injection, schedule: Q01DX001 (ip), vehicle: Klucel (hydroxypropylcellulose) (HPC) 92 % of control | dose: 400.0 mg/kg/injection, schedule: Q01DX001 (ip), vehicle: Klucel (hydroxypropylcellulose) (HPC) 95 % of control

COc1ccc(-n2cnc3[nH]ncc3c2=O)cc1
inactive: dose: 7.5 mg/kg/injection, schedule: Q01DX005 (ip), vehicle: Klucel (hydroxypropylcellulose) (HPC) 104 % of control | dose: 15.0 mg/kg/injection, schedule: Q01DX005 (ip), vehicle: Klucel (hydroxypropylcellulose) (HPC) 106 % of control | dose: 30.0 mg/kg/injection, schedule: Q01DX005 (ip), vehicle: Klucel (hydroxypropylcellulose) (HPC) 110 % of control

CC(=O)OCC(Cn1ccnc1[N+](=O)[O-])OC(C)=O (centres undefined)
inactive: dose: 12.5 mg/kg/injection, schedule: Q01DX009 (ip), vehicle: distilled water + Tween-80 100 % of control | dose: 25.0 mg/kg/injection, schedule: Q01DX009 (ip), vehicle: distilled water + Tween-80 101 % of control | dose: 50.0 mg/kg/injection, schedule: Q01DX009 (ip), vehicle: distilled water + Tween-80 100 % of control | dose: 100.0 mg/kg/injection, schedule: Q01DX009 (ip), vehicle: distilled water + Tween-80 111 % of control | dose: 200.0 mg/kg/injection, schedule: Q01DX009 (ip), vehicle: distilled water + Tween-80 108 % of control

CCCCB1OB(CCCC)OB(CCCC)O1
inactive: [6] 92 % of control | [7] 105 % of control | dose: 200.0 mg/kg/injection, schedule: Q01DX009 (ip), vehicle: saline with Tween-80 105 % of control

Cc1cc(Cl)c2ccc(Cl)c(C)c2n1
inactive: dose: 50.0 mg/kg/injection, schedule: Q01DX005 (ip), vehicle: saline with Tween-80 102 % of control | dose: 100.0 mg/kg/injection, schedule: Q01DX005 (ip), vehicle: saline with Tween-80 104 % of control | dose: 200.0 mg/kg/injection, schedule: Q01DX005 (ip), vehicle: saline with Tween-80 100 % of control

CCc1cccc(C)c1NC(=O)C(=O)CC(=O)c1ccccc1Cl
inactive: dose: 50.0 mg/kg/injection, schedule: Q01DX005 (ip), vehicle: saline 103 % of control | dose: 100.0 mg/kg/injection, schedule: Q01DX005 (ip), vehicle: saline 107 % of control | dose: 200.0 mg/kg/injection, schedule: Q01DX005 (ip), vehicle: saline 103 % of control

CC12CCC3c4ccc(O)cc4CCC3C1C/C(=C\C(=O)O)C2O (centres undefined)
inactive: dose: 25.0 mg/kg/injection, schedule: Q04DX003 (ip), vehicle: Klucel (hydroxypropylcellulose) (HPC) 116 % of control | dose: 50.0 mg/kg/injection, schedule: Q04DX003 (ip), vehicle: Klucel (hydroxypropylcellulose) (HPC) 100 % of control and 104 % of control and 110 % of control | dose: 100.0 mg/kg/injection, schedule: Q04DX003 (ip), vehicle: Klucel (hydroxypropylcellulose) (HPC) 100 % of control (2×) and 111 % of control | dose: 200.0 mg/kg/injection, schedule: Q04DX003 (ip), vehicle: Klucel (hydroxypropylcellulose) (HPC) 99 % of control and 100 % of control and 121 % of control

CCCCCCCC/C=C\CCCCCCCCN1CN=C(N)N(C#N)C1
inactive: [8] 101 % of control | dose: 200.0 mg/kg/injection, schedule: Q04DX003 (ip), vehicle: saline with Tween-80 100 % of control | dose: 400.0 mg/kg/injection, schedule: Q04DX003 (ip), vehicle: saline with Tween-80 103 % of control

ClCc1ccc(CCl)c(Cl)c1Cl
inactive: dose: 25.0 mg/kg/injection, schedule: Q01DX009 (ip), vehicle: saline with Tween-80 100 % of control | dose: 25.0 mg/kg/injection, schedule: Q04DX003 (ip), vehicle: saline with Tween-80 100 % of control | [6] 95 % of control | dose: 50.0 mg/kg/injection, schedule: Q04DX003 (ip), vehicle: saline with Tween-80 95 % of control | [7] 95 % of control | [8] 95 % of control
